Assay results taken from article PMC8253220, “Molecular design, synthesis and in vitro biological evaluation of thienopyrimidine–hydroxamic acids as chimeric kinase HDAC inhibitors: a challenging approach to combat cancer” (Journal of Enzyme Inhibition and Medicinal Chemistry, 2021).
pIC50: −log10 of the molar value. Where “and” joins values, the source holds several entries; their conditions need not be identical. Identical values can stand only once.

Assays:
VEGFR-2 = VEGFR-2 (Homo sapiens, UniProt P35968); test: In vitro VEGFR-2 tyrosine kinase inhibitory assay (Z'-LYTE, SelectScreen); format: biochemical
Chain of VEGFR-2 (P35968 20-1356): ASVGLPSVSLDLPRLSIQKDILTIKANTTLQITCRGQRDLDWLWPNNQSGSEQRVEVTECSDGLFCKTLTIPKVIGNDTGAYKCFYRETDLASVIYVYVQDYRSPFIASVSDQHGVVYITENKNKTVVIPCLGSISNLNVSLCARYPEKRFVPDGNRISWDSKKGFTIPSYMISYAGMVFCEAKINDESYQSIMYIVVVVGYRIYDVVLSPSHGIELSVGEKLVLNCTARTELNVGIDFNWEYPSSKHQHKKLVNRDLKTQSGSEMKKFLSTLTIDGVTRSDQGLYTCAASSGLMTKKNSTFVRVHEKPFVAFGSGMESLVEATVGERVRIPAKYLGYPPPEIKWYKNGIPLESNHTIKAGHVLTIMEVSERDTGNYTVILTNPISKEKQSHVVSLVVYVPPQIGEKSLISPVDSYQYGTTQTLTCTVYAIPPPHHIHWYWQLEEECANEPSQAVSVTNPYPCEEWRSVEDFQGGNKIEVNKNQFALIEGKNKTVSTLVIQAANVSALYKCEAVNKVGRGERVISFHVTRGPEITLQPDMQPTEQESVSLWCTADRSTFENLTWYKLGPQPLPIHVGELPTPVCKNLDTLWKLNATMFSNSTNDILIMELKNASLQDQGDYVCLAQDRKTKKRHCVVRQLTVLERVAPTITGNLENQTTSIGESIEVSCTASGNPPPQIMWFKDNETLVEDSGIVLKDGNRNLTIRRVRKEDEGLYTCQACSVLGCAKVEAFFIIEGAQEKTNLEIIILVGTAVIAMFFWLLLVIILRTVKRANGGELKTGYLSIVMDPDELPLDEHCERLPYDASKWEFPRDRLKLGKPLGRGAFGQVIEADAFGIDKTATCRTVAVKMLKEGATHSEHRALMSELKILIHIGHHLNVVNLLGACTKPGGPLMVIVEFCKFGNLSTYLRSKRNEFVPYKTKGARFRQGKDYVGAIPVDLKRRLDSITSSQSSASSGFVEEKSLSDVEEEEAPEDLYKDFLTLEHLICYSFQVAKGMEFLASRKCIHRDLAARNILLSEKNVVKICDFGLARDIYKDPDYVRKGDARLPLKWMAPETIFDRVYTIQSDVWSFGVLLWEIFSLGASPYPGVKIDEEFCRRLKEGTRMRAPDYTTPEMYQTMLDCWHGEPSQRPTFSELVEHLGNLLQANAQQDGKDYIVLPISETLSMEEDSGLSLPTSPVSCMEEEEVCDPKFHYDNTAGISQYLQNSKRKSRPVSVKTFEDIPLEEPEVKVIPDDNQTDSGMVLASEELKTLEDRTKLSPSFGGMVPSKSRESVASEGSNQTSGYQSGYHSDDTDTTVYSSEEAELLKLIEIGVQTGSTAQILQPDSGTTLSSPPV
Experimental: The target compounds were evaluated for their in vitro inhibitory activities against EGFR, VEGFR-2, and HDAC6. The EGFR and VEGFR-2 inhibitory assays were performed at Thermo Fischer Scientific, Madison, WI, USA (SelectScreenServices@thermofisher.com). The HDAC inhibitory assays were performed at BPS Bioscience, San Diego, CA, USA (www.bpsbioscience.com). Initially, all of the synthesised target compounds were evaluated for their percent inhibitory activity against EGFR, VEGFR-2, and HDACs at 10 µM single dose concentration, in which their mean percent inhibition is summarised in (Figure 5, Tables 1 and [2]). Representative compounds were evaluated for their percent inhibitory activity against EGFR and VEGFR-2 at 6 different concentrations (0.1 nM, 1 nM, 10 nM, 100 nM, 1 µM, 10 µM) to subsequently calculate their IC50 values (Table 3). Additionally, all of the synthesised target compounds were submitted to the National Cancer Institute “NCI” Bethesda, Maryland, USA (www.dtp.nci.nih.gov), to evaluate theirs in vitro antiproliferative activities against NCI 60- cancer cell line panel.
In vitro enzyme inhibition determination for the synthesised compounds was carried out in Thermo Fischer Scientific, Madison, WI, USA (SelectScreenServices@thermofisher.com). The EGFR and VEGFR-2 tyrosine kinase % inhibitory activity at a single-dose concentration of 10 µM was performed initially then representative compounds were evaluated at single-dose concentrations of (0.1 nM, 1 nM, 10 nM, 100 nM, 1 µM) using ZYLTE technology. A fluorescence-based, coupled-enzyme format is employed in the biochemical assay and depends on the sensitivity of proteolytic cleavage to non-phosphorylated and phosphorylated peptides. Then IC50 values for selected compounds were determined by GraphPad Prism at Misr international university.

MDA-MB-231/ATCC = test: NCI one-dose screen; format: cell-based, human; details: Breast MDA-MB-231/ATCC, 10 µM single dose
Summary of the method: (§1)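 One concentration (10 μM) applied to each line of the full NCI-60 panel; percent growth compared against untreated cells.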

HT29 = test: NCI one-dose screen; format: cell-based, human; details: Colon HT29, 10 µM single dose
Summary of the method: as §1

SNB-75 = test: NCI one-dose screen; format: cell-based, human; details: for Growth Percent: CNS SNB-75, 10 µM single dose
Summary of the method: (§2)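 Single dose of 10 μM tested across the full NCI-60 cell panel. Values are percent growth inhibition relative to untreated control cells, following standard NCI methodology.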

MALME-3M = test: NCI one-dose screen; format: cell-based, human; details: Melanoma MALME-3M, 10 µM single dose
Summary of the method: as §1

ACHN = test: NCI one-dose screen; format: cell-based, human; details: Renal ACHN, 10 µM single dose
Summary of the method: as §1

RXF 393 = test: NCI one-dose screen; format: cell-based, human; details: Renal RXF 393, 10 µM single dose
Summary of the method: as §1

HCT-116 = test: NCI one-dose screen; format: cell-based, human; details: Colon HCT-116, 10 µM single dose
Summary of the method: as §1

A549/ATCC = test: NCI one-dose screen; format: cell-based, human; details: NSCLC A549/ATCC, 10 µM single dose
Summary of the method: as §1

SF-539 = test: NCI one-dose screen; format: cell-based, human; details: for Growth Percent: CNS SF-539, 10 µM single dose
Summary of the method: as §2

OVCAR-3 = test: NCI one-dose screen; format: cell-based, human; details: Ovarian OVCAR-3, 10 µM single dose
Summary of the method: as §1

SK-OV-3 = test: NCI one-dose screen; format: cell-based, human; details: Ovarian SK-OV-3, 10 µM single dose
Summary of the method: as §1

NCI-H522 = test: NCI one-dose screen; format: cell-based, human; details: for Growth Percent: NSCLC NCI-H522, 10 µM single dose
Summary of the method: as §2

Row | Structure (SMILES) | inhibition at 10 µM (VEGFR-2; 10 µM single dose) | Growth Percent (MDA-MB-231/ATCC) | Growth Percent (HT29) | Growth Percent (SNB-75) | Growth Percent (MALME-3M) | Growth Percent (ACHN) | Growth Percent (RXF 393) | Growth Percent (HCT-116) | Growth Percent (A549/ATCC) | Growth Percent (SF-539) | Growth Percent (OVCAR-3) | Growth Percent (SK-OV-3) | Growth Percent (NCI-H522) | other results
1 | Cc1c(C(=O)NO)sc2ncnc(Nc3ccc(NC(=O)Nc4ccccc4)cc3)c12 [Compound 7a, 1–(4-(6-(hydroxycarbamoyl)-5-methylthieno[2,3-d]pyrimidin-4-ylamino)phenyl)-3-phenylurea] | 89% | 91.1% and 91.12% | 94.7% and 94.78% | 75.5% and 75.56% | 89.5% and 89.51% | 102.3% and 102.35% | 110.2% | 93.8% and 93.86% | 103.8% and 103.82% | 96.0% | 105.4% and 105.48% | 122.7% and 122.74% | 92.0% and 92.04% | –
2 | COc1cccc(NC(=O)Nc2ccc(Nc3ncnc4sc(C(=O)NO)c(C)c34)cc2)c1 [Compound 7b, 1–(4-(6-(hydroxycarbamoyl)-5-methylthieno[2,3-d]pyrimidin-4-ylamino)phenyl)-3–(3-methoxyphenyl)urea] | 78% | 99.5% and 99.59% | 103.6% and 103.62% | 92.7% and 92.76% | 101.9% and 101.92% | 103.7% and 103.71% | 104.4% | 102.7% and 102.72% | 101.8% and 101.81% | 97.2% and 97.26% | 106.5% and 106.55% | 128.5% and 128.59% | 90.2% and 90.28% | –
3 | Cc1c(C(=O)NO)sc2ncnc(Nc3ccc(NC(=O)Nc4cccc(C(F)(F)F)c4)cc3)c12 [Compound 7c, 1–(4-(6-(hydroxycarbamoyl)-5-methylthieno[2,3-d]pyrimidin-4-ylamino)phenyl)-3–(3-(trifluoromethyl)phenyl)urea] | 104% | 95.2% and 95.26% | 97.2% and 97.28% | 54.0% and 54.04% | 105.0% and 105.06% | 94.84% | 106.61% | 97.9% and 97.94% | 100.4% and 100.47% | 61.4% and 61.49% | 104.2% and 104.27% | 113.0% and 113.07% | 88.3% and 88.38% | inhibition at 0.0001 µM (VEGFR-2; 0.1 nM compound, 10 μM ATP, read-out: % Inhibition mean, KDR (VEGFR2)): 6%; inhibition at 0.001 µM (VEGFR-2; 1 nM compound, 10 μM ATP, read-out: % Inhibition mean, KDR (VEGFR2)): 6%; inhibition at 0.01 µM (VEGFR-2; 10 nM compound, 10 μM ATP, read-out: % Inhibition mean, KDR (VEGFR2)): 2%; inhibition at 0.1 µM (VEGFR-2; 100 nM compound, 10 μM ATP, read-out: % Inhibition mean, KDR (VEGFR2)): 36%; inhibition at 1 µM (VEGFR-2; 1000 nM compound, 10 μM ATP, read-out: % Inhibition mean, KDR (VEGFR2)): 90%; Mean % inhibition VEGFR-2 (VEGFR-2; 10 µM single dose): 100%; pIC50 (VEGFR-2; read-out: IC50 in enzyme assays VEGFR-2): 6.72; inhibition at 10 µM (SNB-75; Homo sapiens, CNS SNB-75, 10 μM): 46%; inhibition at 10 µM (SF-539; Homo sapiens, CNS SF-539, 10 μM): 38.6%; inhibition at 10 µM (NCI-H522; Homo sapiens, NSCLC NCI-H522, 10 μM): 11.7%
4 | Cc1c(C(=O)NO)sc2ncnc(Nc3ccc(NC(=S)Nc4ccccc4)cc3)c12 [Compound 7d, 1–(4-(6-(hydroxycarbamoyl)-5-methylthieno[2,3-d]pyrimidin-4-ylamino)phenyl)-3-phenylthiourea] | 45% | 94.9% and 94.96% | 102.7% and 102.73% | 87.9% and 87.95% | 99.4% and 99.48% | 105.4% and 105.43% | 103.7% and 103.72% | 105.2% and 105.28% | 101.3% and 101.33% | 100.3% and 100.31% | 111.0% and 111.03% | 120.7% and 120.74% | 92.1% and 92.13% | –
5 | Cc1c(C(=O)NCCC(=O)NO)sc2ncnc(Nc3ccc(NC(=O)Nc4ccccc4)cc3)c12 [Compound 11a, 1–(4-(6-((3-(hydroxyamino)-3-oxopropyl)carbamoyl)-5-methylthieno[2,3-d]pyrimidin-4-ylamino)phenyl)-3-phenylurea] | 47% | 97.6% and 97.67% | 104.0% and 104.03% | 79.7% and 79.72% | 103.6% and 103.62% | 101.6% and 101.68% | 107.3% and 107.33% | 102.9% and 102.94% | 97.7% and 97.77% | 90.3% and 90.31% | 102.6% and 102.61% | 123.7% and 123.79% | 92.8% | –
6 | COc1cccc(NC(=O)Nc2ccc(Nc3ncnc4sc(C(=O)NCCC(=O)NO)c(C)c34)cc2)c1 [Compound 11b, 1–(4-(6-((3-(hydroxyamino)-3-oxopropyl)carbamoyl)-5-methylthieno[2,3-d]pyrimidin-4-ylamino)phenyl)-3–(3-methoxyphenyl)urea] | 75% | 100.5% and 100.55% | 104.4% and 104.43% | 83.7% and 83.79% | 107.0% and 107.03% | 106.0% and 106.03% | 104.1% | 101.6% and 101.62% | 96.2% and 96.21% | 98.0% and 98.07% | 108.9% | 123.7% and 123.78% | 94.6% and 94.61% | –
7 | Cc1c(C(=O)NCCC(=O)NO)sc2ncnc(Nc3ccc(NC(=O)Nc4cccc(C(F)(F)F)c4)cc3)c12 [Compound 11c, 1–(4-(6-((3-(hydroxyamino)-3-oxopropyl)carbamoyl)-5-methylthieno[2,3-d]pyrimidin-4-ylamino)phenyl)-3–(3-(trifluoromethyl)phenyl)urea] | 91% | 105.2% and 105.25% | 109.8% and 109.85% | 78.8% | 112.1% and 112.11% | 101.7% and 101.74% | 103.8% and 103.88% | 107.9% and 107.91% | 103.7% and 103.74% | 78.9% and 78.96% | 111.6% | 115.3% and 115.32% | 94.3% and 94.36% | –
8 | Cc1c(C(=O)NCCCC(=O)NO)sc2ncnc(Nc3ccc(NC(=O)Nc4ccccc4)cc3)c12 [Compound 12a, 1–(4-(6-((4-(hydroxyamino)-4-oxobutyl)carbamoyl)-5-methylthieno[2,3-d]pyrimidin-4-ylamino)phenyl)-3-phenylurea] | 48% | 92.1% and 92.16% | 104.7% and 104.74% | 78.1% and 78.17% | 104.5% and 104.57% | 95.4% and 95.45% | 100.1% and 100.13% | 99.5% | 99.6% and 99.69% | 96.5% and 96.54% | 107.1% and 107.19% | 121.6% and 121.69% | 87.7% and 87.71% | –
